How the values were obtained:
[1] = system: bacteria from freshly-collected simulated whole saliva (biofilm); test: Mixed culture saliva biofilm on saliva-coated hydroxyapatite discs, timed exposure to actives; format: cell-based; conditions: for % OD reduction (600 nm): Table 8
Procedure: Although useful to show the comparative effect of Magnolia Bark Extract on biofilm formation and MIC growth, the foregoing test procedure may not effectively mimic the in vivo exposure of an oral care product to a developing plaque biofilm. In an in vivo situation, the active could be exposed to the plaque for a defined period of time at a set frequency (for example, for 5 minutes, three times a day). Therefore, a series of comparative experiments were conducted to mimic the in vivo use of potential active ingredients. To perform the tests the saliva compositions listed below in Tables 2 and 3 were prepared.
A mixed culture system that utilizes the bacteria from freshly-collected simulated whole saliva was used. Saliva cell pellets were used to inoculate saliva-coated hydroxyapatite (S-HA) discs. The discs were placed in 24-well cell culture plates and incubated for up to 3 days. Biofilms were exposed to actives on days 2 and 3 (starting at 18 hours), and quantified on day 4. The number of bacteria was determined by spectrophotometric absorbance or optical density (OD) at 600 nm. The five phases of the experiment were: pellicle formation; bacterial attachment; biofilm growth; exposure to actives; and bacterial enumeration.
To form the pellicles, HA Discs were ultrasonically washed in deionized water and air-dried, then autoclaved. The discs were placed in a 24-well plate with 1 ml 50% sterile saliva (1 part sterile whole saliva: 1 part saliva buffer, filter sterilize after preparation) for 2 hours on slow agitation at room temperature. The saliva was suctioned and then the discs were transferred to fresh wells for bacterial attachment.
To form the biofilms, the bacterial suspension was removed, and the discs were transferred to fresh wells. One ml of supplemented saliva medium was added and the plate was placed in the incubator for overnight incubation and for the duration of the experiment (up to 72 hours).
A stock solution of 1% Magnolia Bark Extract in 60% ethanol was prepared. Magnolia Bark Extract samples were prepared having a concentration range of 125, 250, 500, and 1000 μg/ml (ppm) in a Phosphate-Buffered-Saline (PBS) solution, where the negative control was PBS and the positive control was CHX having a concentration of 0.12%.
One-ml quantities of active ingredients and controls were placed into fresh wells, and the discs were transferred to these wells for 5 minutes. The chlorhexidine control exposure was one minute, two times a day to mimic the standard mouth-rinse procedure. The exposure to active ingredient was carried out at 8:00 AM, 12:00 and 4:00 PM. After the timed exposure, the solution was removed and the discs washed twice with PBS and then transferred to fresh medium. For some experiments, the medium used during the day was TSB (Tryptic Soy Broth) with a 50 μl 40% sterile sucrose solution added to each well (to give a 2% sucrose solution). The medium was not replaced after the mid-day exposure.
After overnight incubation (day 2), discs were exposed to controls and actives. On day 3 the biofilms were again exposed to tests and controls. On day 4 the discs were removed from the medium, the medium pH was measured to obtain an indication of metabolic activity, and the discs were placed into tubes with 2.5 ml PBS, vortexed for 20 sec, and then placed into the ultrasonic bath for another 20 sec. The suspension was transferred into cuvettes and the bacterial cell density determined by OD measurements at 600 nm.
To evaluate the effect of Magnolia Bark Extract in combination with the surface active agent, sodium lauryl sulfate, five active ingredient solutions were prepared using the procedures described above. […] Also, the MBE solutions were prepared to have a concentration of 500 ppm. Sodium lauryl sulfate was added to two of the Magnolia Bark Extract solutions to obtain SLS concentrations of 0.05% and 0.1% in the Magnolia Bark Extract solutions. […]

S. mutans = test: MIC and fractional inhibitory index of MBE / surface active agent combinations; format: cell-based, Streptococcus mutans; conditions: 24 hours at 37° C.
Procedure: (§1) To evaluate the germ-kill efficacy and synergist effect when two or more germ-kill actives are combined, testing was performed to determine the ratio of MBE to surface active agent. The germ-kill active and/or surface active agent were dissolved in ethanol or sterile water to give an initial concentration 0.1% to 1%. The solution was diluted with a nutrient broth to give an initial concentration of 0.05% to 0.5%, which was then serially diluted two-fold so that each subsequent dilution contained 50% of the compound concentration of the previous dilution while maintaining a constant level of nutrients for each dilution. These dilutions were inoculated with representative oral microorganisms, or incubated saliva, and incubated for 24 hours at 37° C. For each surface active agent, the lowest dilution that was not turbid was registered as the MIC. The MBC was determined by transferring 10 microliter of liquid from non-turbid tubes to fresh growth media and incubated for 48 hours.
(1) where an FIC value of less than 1.0 is synergistic, an FIC between 1.0 and 2.0 is additive, and an FIC greater than 2.0 is antagonistic.

incubated saliva = test: MIC of surface active agents and emulsifiers, two-fold broth dilution; format: cell-based; conditions: 24 hours at 37° C., lowest dilution not turbid
Procedure: as §1

For `[H]/N=C(\N/C(=N/[H])NCCCCCCNC(=N)NC(=N)Nc1ccc(Cl)cc1)Nc1ccc(Cl)cc1` [CHX, chlorhexidine], the “pH (medium pH, indication of metabolic activity)” value (shortened to “pH”) ([1]; Table 5, CHX 0.12%, exposure one minute, two times a day) was 8.8, the “% OD reduction (600 nm, compared to PBS control)” value ([1]; Table 6, CHX 0.12%, exposure one minute, two times a day) was 84% and the “pH” value ([1]; Table 7, CHX 0.1% (1000 ppm)) was 8.8. The “% OD reduction (600 nm)” value ([1]; CHX 0.1% (1000 ppm)) was 94%.
In the case of `N=C(NCCCCCCNC(=N)NC(=N)Nc1ccc(Cl)cc1)NC(=N)Nc1ccc(Cl)cc1.O=C(O)[C@H](O)[C@@H](O)[C@H](O)[C@H](O)CO.O=C(O)[C@H](O)[C@@H](O)[C@H](O)[C@H](O)CO` [Chlorhexidine gluconate], the MIC/ppm (S. mutans) is reported as 2 ppm and the “MIC (ppm)” value (incubated saliva) is reported as 2 ppm.
In the case of `CCCCCCCCCCCCOS(=O)(=O)[O-].[Na+]` [SLS, sodium lauryl sulfate], the “pH” value ([1]; Table 7, SLS 1000 ppm) is reported as 5.7 and the “% OD reduction (600 nm)” value ([1]; SLS 1000 ppm) is reported as 61%.
In the case of Sodium Brasslate, the “MIC (ppm)” value (incubated saliva) is reported as 500 ppm.
In the case of Sodium Stearoyl Lactylate, the “MIC (ppm)” value (incubated saliva) is reported as >3000 ppm.
In the case of Sucrose Distearate, the “MIC (ppm)” value (incubated saliva) is reported as >500 ppm.
Sucrose Stearate was tested, and the “MIC (ppm)” value (incubated saliva) was >500 ppm.

— patent US7544377B2, “Chewable compositions with fast release magnolia bark extract” (GIC Innovations Company, priority 2005, dated 2009)
